This is an account of results in patent publication US6762181B1, “Aminomethylpyrrolidine derivatives having aromatic substituents” (Daiichi Pharmaceutical Co., Ltd., priority 1999, dated 2004).

A word on the MIC: it is the lowest concentration that inhibits growth of the organism.

What all share (assay): Antibacterial activity (MIC), Japan Society of Chemotherapy standard method
Common to all, as to type: cell-based

Experiment [1] deals with E. coli NIHJ. As for the experimental part: (§1) Antibacterial activities of the compounds of the invention were measured in accordance with the standard method specified by the Japan Society of Chemotherapy, with the results shown in the following table as MIC values (μg/ml). In this connection, MIC values of levofloxacin (LVFX), ciprofloxacin (CPFX) and 5-amino-7-[3-(R)-[1-(S)-aminoethyl]pyrrolidin-1-yl]-6-fluoro-1-[2-(S)-fluoro-1-(R)-cyclopropyl]-8-methyl-1,4-dihydro-4-oxoquinoline-3-carboxylic acid (control drug 1) described in WO 9623782 are also shown for the sake of comparison with the MIC values of the compounds of the invention.

For experiment [2], the system named is E. faecalis ATCC 19433. As to the method:
as §1

The test system of experiment [3] is K. pneumoniae TYPE 1. As to the method: as §1
Experiment [4] concerns Pr. Vulgaris O8601. As for the experimental part:
as §1

Experiment [5] concerns Ps. aeruginosa 32104. As to the method:
as §1

Experiment [6] concerns Ps. aeruginosa 32121. As for the experimental part:
as §1

Experiment [7] concerns S. aureus 870307. As for the experimental part:
as §1

The test system of experiment [8] is S. aureus FDA 209P. As for the experimental part: as §1
Experiment [9] concerns S. epidermidis 56500. As for the experimental part: as §1
In experiment [10] the test system is S. flexneri 2A 5503. As for the experimental part: as §1
Experiment [11] deals with Ser. marcescens 10100. As for the experimental part:
as §1

For experiment [12], the system named is Str. pneumoniae J24. As for the experimental part: as §1
For experiment [13], the system named is Str. pyrogenes G-36. As for the experimental part: as §1
The subject of experiment [14] is X. maltophilia IID 1275. As for the experimental part: as §1
[15] abbreviates: Escherichia coli, read-out: MIC.
[16] abbreviates: Enterococcus faecalis, ATCC19433, E. faecalis ATCC 19433, read-out: MIC.
Where [17] appears, read: Klebsiella pneumoniae, TYPE1, K. pneumoniae TYPE 1, read-out: MIC.
Where [18] appears, read: Proteus vulgaris, read-out: MIC.
Where [19] appears, read: Pseudomonas aeruginosa, 32104, Ps. aeruginosa 32104, read-out: MIC.
The mark [20] stands for this setting: Pseudomonas aeruginosa, 32121, Ps. aeruginosa 32121, read-out: MIC.
The mark [21] stands for this setting: Staphylococcus aureus, 870307, S. aureus 870307, read-out: MIC.
The mark [22] stands for this setting: Staphylococcus aureus, FDA209P, read-out: MIC.
The mark [23] stands for this setting: Staphylococcus epidermidis, read-out: MIC.
Where [24] appears, read: Shigella flexneri, 2A5503, S. flexneri 2A 5503, read-out: MIC.
The mark [25] stands for this setting: Serratia marcescens, 10100, Ser. marcescens 10100, read-out: MIC.
The mark [26] stands for this setting: Streptococcus pneumoniae, J24, Str. pneumoniae J24, read-out: MIC.
[27] abbreviates: Stenotrophomonas maltophilia, IID1275, X. maltophilia IID 1275, read-out: MIC.

≈ marks a conversion by molar mass, not a printed value. Like-named read-outs stand apart in the source and are kept apart here.

Consider `C[C@H]1COc2c(N3CC[C@@H](C(N)c4ccccc4)C3)c(F)cc3c(=O)c(C(=O)O)cn1c23` (stereo partly drawn) [Example 4, 10-[3-(R)-(1-Amino-1-Phenylmethyl)-1-Pyrrolidinyl]-9-Fluoro-2,3-Dihydro-3-(S)-Methyl-7-Oxo-7H-Pyrido [1,2,3,-de] [1,4] Benzoxazine-6-Carboxylic Acid], for which the minimal inhibitory concentration (MIC) result in experiment [1] was “≦0.003 μg/ml”; in [2] (E. faecalis ATCC 19433), 0.006 µg/mL (≈ 0.0137 µM); in experiment [3] (K. pneumoniae TYPE 1), 0.025 µg/mL (≈ 0.0571 µM); in experiment [4], 0.013 µg/mL (≈ 0.0297 µM); in experiment [5] (Ps. aeruginosa 32104), 0.1 µg/mL (≈ 0.229 µM); in experiment [6] (Ps. aeruginosa 32121), 0.05 µg/mL (≈ 0.114 µM). Also, the minimal inhibitory concentration (MIC) result in experiment [7] (S. aureus 870307) was “≦0.003 μg/ml”; in [8], “≦0.003 μg/ml”; in experiment [9], “≦0.003 μg/ml”; in [10] (S. flexneri 2A 5503) it was “≦0.003 μg/ml”; in experiment [11] (Ser. marcescens 10100) it was 0.025 µg/mL (≈ 0.0571 µM); in experiment [12] (Str. pneumoniae J24) it was “≦0.003 μg/ml”. In addition, the results for the MIC result in experiment [13] and in experiment [14] (X. maltophilia IID 1275) were “≦0.003 μg/ml” and 0.05 µg/mL (≈ 0.114 µM), respectively.
As to `Cc1c(N2CC[C@@H](C(N)c3ccccc3)C2)c(F)c(N)c2c(=O)c(C(=O)O)cn([C@@H]3C[C@@H]3F)c12` (stereo partly drawn) [Example 5, 5-Amino-7-[3-(R)-(1-Amino-1-Phenylmethyl)-1-Pyrrolidinyl]-6-Fluoro-1-[2-(S)-Fluoro-1-(R)-Cyclopropyl]-1,4-Dihydro-8-Methyl-4-Oxoquinoline-3-Carboxylic Acid], the MIC in [1] (setting [15]) is no more than 0.003 µg/mL; in [2] (setting [16]), 0.006 µg/mL (≈ 0.0128 µM); in experiment [3] (setting [17]), 0.013 µg/mL (≈ 0.0277 µM); in experiment [4] (setting [18]), 0.013 µg/mL (≈ 0.0277 µM); in experiment [5] (setting [19]), 0.1 µg/mL (≈ 0.213 µM); in [6] (setting [20]), 0.025 µg/mL (≈ 0.0534 µM). Further, the MIC in [7] (setting [21]) is no more than 0.003 µg/mL; in experiment [8] (setting [22]), no more than 0.003 µg/mL; in [9] (setting [23]) it was no more than 0.003 µg/mL; in [10] (setting [24]), no more than 0.003 µg/mL; in experiment [11] (setting [25]), 0.025 µg/mL (≈ 0.0534 µM); in experiment [12] (setting [26]), no more than 0.003 µg/mL. Also, the results for the MIC in experiment [13] (read-out: MIC) and in experiment [14] (setting [27]) were no more than 0.003 µg/mL and 0.025 µg/mL (≈ 0.0534 µM), respectively.
Regarding `COc1c(N2CC[C@@H](C(N)c3ccccc3)C2)ccc2c(=O)c(C(=O)O)cn([C@@H]3C[C@@H]3F)c12` (stereo partly drawn) [Example 6, 7-[3-(R)-(1-Amino-1-Phenylmethyl)-1-Pyrrolidinyl]-1-[2-(S)-Fluoro-1-(R)-Cyclopropyl]-1,4-Dihydro-8-Methoxy-4-Oxoquinoline-3-Carboxylic Acid], the MIC stood at 0.006 µg/mL (≈ 0.0133 µM) in [1] (setting [15]); 0.025 µg/mL (≈ 0.0554 µM) in experiment [2] (setting [16]); 0.05 µg/mL (≈ 0.111 µM) in experiment [3] (setting [17]); 0.1 µg/mL (≈ 0.221 µM) in experiment [4] (setting [18]); 0.2 µg/mL (≈ 0.443 µM) in experiment [5] (setting [19]); 0.1 µg/mL (≈ 0.221 µM) in experiment [6] (setting [20]). Further, the MIC in [7] (setting [21]) was 0.013 µg/mL (≈ 0.0288 µM); in experiment [8] (setting [22]), no more than 0.003 µg/mL; in [9] (setting [23]), 0.006 µg/mL (≈ 0.0133 µM); in experiment [10] (setting [24]), 0.013 µg/mL (≈ 0.0288 µM); in [11] (setting [25]), 0.1 µg/mL (≈ 0.221 µM); in [12] (setting [26]), no more than 0.003 µg/mL. The MIC is no more than 0.003 µg/mL in experiment [13] (read-out: MIC) and 0.1 µg/mL (≈ 0.221 µM) in [14] (setting [27]).
For `COc1ccccc1C(N)[C@@H]1CCN(c2c(F)c(N)c3c(=O)c(C(=O)O)cn([C@@H]4C[C@@H]4F)c3c2F)C1` (stereo partly drawn) [Example 8, 5-Amino-7-[3-(R)-(1-Amino-1-(2-Methoxy) Phenylmethyl)-1-Pyrrolidinyl]-6,8-Difluoro-1-[2-(S)-Fluoro-1-(R)-Cyclopropyl]-1,4-Dihydro-4-Oxoquinoline-3-Carboxylic Acid], the MIC entry in [1] was “≦0.003 μg/ml”; in experiment [2] (E. faecalis ATCC 19433) it was 0.025 µg/mL (≈ 0.0498 µM); in experiment [3] (K. pneumoniae TYPE 1), 0.05 µg/mL (≈ 0.0995 µM); in [4], 0.2 µg/mL (≈ 0.398 µM); in experiment [5] (Ps. aeruginosa 32104) it was 0.2 µg/mL (≈ 0.398 µM); in experiment [6] (Ps. aeruginosa 32121) it was 0.1 µg/mL (≈ 0.199 µM). Moreover, the MIC is 0.013 µg/mL (≈ 0.0259 µM) in experiment [7] (S. aureus 870307); “≦0.003 μg/ml” in [8]; “≦0.003 μg/ml” in experiment [9]; 0.006 µg/mL (≈ 0.0119 µM) in experiment [10] (S. flexneri 2A 5503); 0.2 µg/mL (≈ 0.398 µM) in [11] (Ser. marcescens 10100); “≦0.003 μg/ml” in [12] (Str. pneumoniae J24). Also, the MIC result in experiment [13] was “≦0.003 μg/ml”; in [14] (X. maltophilia IID 1275), 0.2 µg/mL (≈ 0.398 µM).
Turning to `Nc1c(F)c(N2CC[C@@H](C(N)c3ccc(F)cc3F)C2)c(F)c2c1c(=O)c(C(=O)O)cn2[C@@H]1C[C@@H]1F` (stereo partly drawn) [Example 10, 5-Amino-7-[3-(R)-(1Amino-1-(2,4-Difluoro) Phenylmethyl)-1-Pyrrolidinyl]-6,8-Difluoro-1-[2-(S)-Fluoro-1-(R)-Cyclopropyl]-1,4-Dihydro-4-Oxoquinoline-3-Carboxylic Acid], the MIC entry was “≦0.003 μg/ml” in experiment [1]; 0.025 µg/mL (≈ 0.0492 µM) in experiment [2] (E. faecalis ATCC 19433); 0.013 µg/mL (≈ 0.0256 µM) in experiment [3] (K. pneumoniae TYPE 1); 0.1 µg/mL (≈ 0.197 µM) in [4]; 0.2 µg/mL (≈ 0.393 µM) in experiment [5] (Ps. aeruginosa 32104); 0.1 µg/mL (≈ 0.197 µM) in experiment [6] (Ps. aeruginosa 32121). The MIC in experiment [7] (S. aureus 870307) was 0.006 µg/mL (≈ 0.0118 µM); in experiment [8], “≦0.003 μg/ml”; in experiment [9], “≦0.003 μg/ml”; in experiment [10] (S. flexneri 2A 5503) it was “≦0.003 μg/ml”; in experiment [11] (Ser. marcescens 10100), 0.1 µg/mL (≈ 0.197 µM); in experiment [12] (Str. pneumoniae J24), “≦0.003 μg/ml”. The figures for the minimal inhibitory concentration (MIC) result in experiment [13] and in [14] (X. maltophilia IID 1275) were “≦0.003 μg/ml” and 0.05 µg/mL (≈ 0.0983 µM), respectively.
In the case of `Nc1c(F)c(N2CC[C@@H](C(N)c3ccco3)C2)c(F)c2c1c(=O)c(C(=O)O)cn2[C@@H]1C[C@@H]1F` (stereo partly drawn) [Example 11, 5-Amino-7-{3-(R)-[1-amino-1-(2-furyl)methyl]-1-pyrrolidinyl}-6,8-difluoro-1-[2-(S)-fluoro-1-(R)-cyclopropyl]-1,4-dihydro-4-oxoquinoline-3-carboxylic acid], the minimal inhibitory concentration (MIC) entry in experiment [1] was “≦0.003 μg/ml”; in experiment [2] (E. faecalis ATCC 19433), 0.025 µg/mL (≈ 0.0541 µM); in experiment [3] (setting [17]) it was 0.025 µg/mL (≈ 0.0541 µM); in experiment [4], 0.05 µg/mL (≈ 0.108 µM); in [5] (setting [19]), 0.2 µg/mL (≈ 0.432 µM); in experiment [6] (setting [20]) it was 0.05 µg/mL (≈ 0.108 µM). Also, the minimum inhibitory concentration (MIC) was 0.025 µg/mL (≈ 0.0541 µM) in experiment [7] (S. aureus 870307); no more than 0.003 µg/mL in experiment [8] (setting [22]); no more than 0.003 µg/mL in experiment [9] (setting [23]); “≦0.003 μg/ml” in experiment [10] (S. flexneri 2A 5503); 0.05 µg/mL (≈ 0.108 µM) in experiment [11] (setting [25]); 0.006 µg/mL (≈ 0.013 µM) in experiment [12] (setting [26]). In addition, the MIC in experiment [13] came out at 0.013 µg/mL (≈ 0.0281 µM); in [14] (setting [27]), 0.05 µg/mL (≈ 0.108 µM).
As for `Nc1c(F)c(N2CC[C@@H](C(N)c3ccco3)C2)c(F)c2c1c(=O)c(C(=O)O)cn2[C@@H]1C[C@@H]1F` (stereo partly drawn) [Example 12, 5-Amino-7-{3-(R)-[1-amino-1-(2-furyl)methyl]-1-pyrrolidinyl}-6,8-difluoro-1-[2-(S)-fluoro-1-(R)-cyclopropyl]-1,4-dihydro-4-oxoquinoline-3-carboxylic acid], the MIC was no more than 0.003 µg/mL in [1] (setting [15]); 0.006 µg/mL (≈ 0.013 µM) in experiment [2] (E. faecalis ATCC 19433); 0.025 µg/mL (≈ 0.0541 µM) in experiment [3] (K. pneumoniae TYPE 1); 0.013 µg/mL (≈ 0.0281 µM) in [4]; 0.1 µg/mL (≈ 0.216 µM) in experiment [5] (Ps. aeruginosa 32104); 0.05 µg/mL (≈ 0.108 µM) in experiment [6] (Ps. aeruginosa 32121). Also, the MIC entry in [7] (S. aureus 870307) is “≦0.003 μg/ml”; in experiment [8] it was “≦0.003 μg/ml”; in experiment [9] it was “≦0.003 μg/ml”; in experiment [10] (setting [24]), no more than 0.003 µg/mL; in experiment [11] (Ser. marcescens 10100) it was 0.025 µg/mL (≈ 0.0541 µM); in experiment [12] (Str. pneumoniae J24), “≦0.003 μg/ml”. For the same compound, the MIC entry in [13] is “≦0.003 μg/ml”; in [14] (X. maltophilia IID 1275), 0.05 µg/mL (≈ 0.108 µM).
